Values joined by “and” are separate entries in the source; they are usually repeats but may differ in a detail not shown here. Equal entries are not always repeated.
Experiments:
Type in all cases: functional
Conditions in all cases: Enterobacteria phage phiX174
Nucleic Acid [1] = assay: Percent DNA cleavage induced by administering the compound (0.1 uM) within 12 hr to form RfIII DNA was determined by using phiX174 bacteriophage DNA
Nucleic Acid [2] = assay: Percent DNA cleavage induced by administering the compound (0.1 uM) within 12 hr to form RfI DNA was determined by using phiX174 bacteriophage DNA
Nucleic Acid [3] = assay: Percent DNA cleavage induced by administering the compound (0.1 uM) within 12 hr to form RfII DNA was determined by using phiX174 bacteriophage DNA
Nucleic Acid [4] = assay: Percent DNA cleavage induced by administering the compound (0.1 uM) within 48 hr to form RfI DNA was determined by using phiX174 bacteriophage DNA
Nucleic Acid [5] = assay: Percent DNA cleavage induced by administering the compound (0.1 uM) within 24 hr to form RfII DNA was determined by using phiX174 bacteriophage DNA
Nucleic Acid [6] = assay: Percent DNA cleavage induced by administering the compound (0.1 uM) within 48 hr to form RfIII DNA was determined by using phiX174 bacteriophage DNA
Nucleic Acid [7] = assay: Percent DNA cleavage induced by administering the compound (0.1 uM) within 48 hr to form RfII DNA was determined by using phiX174 bacteriophage DNA
Nucleic Acid [8] = assay: Percent DNA cleavage induced by administering the compound (0.1 uM) within 24 hr to form RfI DNA was determined by using phiX174 bacteriophage DNA
Nucleic Acid [9] = assay: Percent DNA cleavage induced by administering the compound (0.1 uM) within 24 hr to form RfIII DNA was determined by using phiX174 bacteriophage DNA
Nucleic Acid [10] = assay: Percent DNA cleavage induced by administering the compound (1.0 uM) within 12 hr to form RfI DNA was determined by using phiX174 bacteriophage DNA
Nucleic Acid [11] = assay: Percent DNA cleavage induced by administering the compound (1.0 uM) within 12 hr to form RfIII DNA was determined by using phiX174 bacteriophage DNA
Nucleic Acid [12] = assay: Percent DNA cleavage induced by administering the compound (1.0 uM) within 12 hr to form RfII DNA was determined by using phiX174 bacteriophage DNA
Nucleic Acid [13] = assay: Percent DNA cleavage induced by administering the compound (0.1 uM), additive 100 uM distamycin A within 24 hr to form RfI DNA was determined by using phiX174 bacteriophage DNA
Nucleic Acid [14] = assay: Percent DNA cleavage induced by administering the compound (0.1uM), additive 10 uM distamycin A within 24 hr to form RfI DNA was determined by using phiX174 bacteriophage DNA
Nucleic Acid [15] = assay: Percent DNA cleavage induced by administering the compound (0.1 uM), additive Ar/N2 within 12 hr to form RfIII DNA was determined by using phiX174 bacteriophage DNA
Nucleic Acid [16] = assay: Percent DNA cleavage induced by administering the compound (0.1 uM), additive Ar/N2 within 12 hr to form RfI DNA was determined by using phiX174 bacteriophage DNA
Nucleic Acid [17] = assay: Percent DNA cleavage induced by administering the compound (0.1 uM), additive 1000 uM distamycin A within 24 hr to form RfI DNA was determined by using phiX174 bacteriophage DNA
Nucleic Acid [18] = assay: Percent DNA cleavage induced by administering the compound (0.1 uM), additive 10 mM aliquots of metal chlorides M2+/3- within 12 hr to form RfI DNA was determined by using phiX174 bacteriophage DNA
Nucleic Acid [19] = assay: Percent DNA cleavage induced by administering the compound (0.1 uM), additive Ar/N2 within 12 hr to form RfII DNA was determined by using phiX174 bacteriophage DNA
Nucleic Acid [20] = assay: Percent DNA cleavage induced by administering the compound (0.1 uM), additive 100 uM distamycin A within 24 hr to form RfIII DNA was determined by using phiX174 bacteriophage DNA
Nucleic Acid [21] = assay: Percent DNA cleavage induced by administering the compound (0.1 uM), additive 1000 uM distamycin A within 24 hr to form RfII DNA was determined by using phiX174 bacteriophage DNA
Nucleic Acid [22] = assay: Percent DNA cleavage induced by administering the compound (0.1 uM), additive 100 uM distamycin A within 24 hr to form RfII DNA was determined by using phiX174 bacteriophage DNA
Nucleic Acid [23] = assay: Percent DNA cleavage induced by administering the compound (0.1 uM), additive 10 mM aliquots of metal chlorides M2+/3- within 12 hr to form RfIII DNA was determined by using phiX174 bacteriophage DNA
Nucleic Acid [24] = assay: Percent DNA cleavage induced by administering the compound (0.1 uM), additive 10 uM distamycin A within 24 hr to form RfII DNA was determined by using phiX174 bacteriophage DNA
Nucleic Acid [25] = assay: Percent DNA cleavage induced by administering the compound (0.1 uM), additive 10 mM aliquots of metal chlorides M2+/3- within 12 hr to form RfII DNA was determined by using phiX174 bacteriophage DNA
Nucleic Acid [26] = assay: Percent DNA cleavage induced by administering the compound (0.1 uM), additive 10 uM distamycin A within 24 hr to form RfIII DNA was determined by using phiX174 bacteriophage DNA
Nucleic Acid [27] = assay: Percent DNA cleavage induced by administering the compound (0.1 uM), additive 1000 uM distamycin A within 24 hr to form RfIII DNA was determined by using phiX174 bacteriophage DNA
Nucleic Acid [28] = assay: Percent DNA cleavage induced by administering the compound (1.0 uM) within 12 hr to form RfIII DNA was determined by using phiX174 bacteriophage DNA by using phiX174 bacteriophage DNA
Nucleic Acid [29] = assay: Percent DNA cleavage induced by administering the compound within 12 hr to form RfI DNA was determined by using phiX174 bacteriophage DNA
Nucleic Acid [30] = assay: Percent DNA cleavage induced by administering the compound (0.1 uM) within 24hto form RfIII DNA was determined by using phiX174 bacteriophage DNA
Nucleic Acid [31] = assay: Percent DNA cleavage induced by administering the compound (1.0 uM) within 48 hr to form RfI DNA was determined by using phiX174 bacteriophage DNA
Nucleic Acid [32] = assay: Percent DNA cleavage induced by administering the compound (1.0 uM) within 48 hr to form RfII DNA was determined by using phiX174 bacteriophage DNA
Nucleic Acid [33] = assay: Percent DNA cleavage induced by administering the compound (1.0 uM) within 48 hr to form RfIII DNA was determined by using phiX174 bacteriophage DNA

Work on `Nc1cccc(C(=O)Nc2cc(NC(=O)c3ccccc3)cc(C(=O)NCCCCCCNC(=O)c3cc(NC(=O)c4ccccc4)cc(NC(=O)c4cccc(N)c4)c3)c2)c1` yielded a Cleavage (Nucleic Acid [1]) of 0%, a Cleavage (Nucleic Acid [2]) of 38% and a Cleavage (Nucleic Acid [3]) of 62%.
`Nc1cccc(C(=O)Nc2cc(NC(=O)c3ccccc3)cc(C(=O)NCCCCNC(=O)c3cc(NC(=O)c4ccccc4)cc(NC(=O)c4cccc(N)c4)c3)c2)c1` gave a Cleavage (Nucleic Acid [1]) of 0%, a Cleavage (Nucleic Acid [2]) of 37% and a Cleavage (Nucleic Acid [3]) of 63%.
In the case of `Nc1cccc(C(=O)Nc2cc(NC(=O)c3ccccc3)cc(C(=O)NCCNC(=O)c3cc(NC(=O)c4ccccc4)cc(NC(=O)c4cccc(N)c4)c3)c2)c1`, the Cleavage (Nucleic Acid [4]) is reported as 7%, the Cleavage (Nucleic Acid [5]) is reported as 65% and the Cleavage (Nucleic Acid [6]) is reported as 0%. For the same compound, the Cleavage (Nucleic Acid [7]) was 93%, the Cleavage (Nucleic Acid [8]) was 35% and the Cleavage (Nucleic Acid [9]) was 0%.
In the case of `CCOC(=O)c1cc(NC(=O)c2cccc([N+](=O)[O-])c2)cc(NC(=O)c2cc(N)cc([N+](=O)[O-])c2)c1`, the Cleavage (Nucleic Acid [10]) is reported as 44%, the Cleavage (Nucleic Acid [11]) is reported as 0% and the Cleavage (Nucleic Acid [12]) is reported as 56%.
With `Nc1cccc(C(=O)Nc2cc(NC(=O)c3ccccc3)cc(C(=O)NCCCNC(=O)c3cc(NC(=O)c4ccccc4)cc(NC(=O)c4cccc(N)c4)c3)c2)c1` the Cleavage (Nucleic Acid [13]) was 65%, the Cleavage (Nucleic Acid [14]) was 25% and the Cleavage (Nucleic Acid [15]) was 0%. For the same compound, the Cleavage (Nucleic Acid [16]) was 26%, the Cleavage (Nucleic Acid [17]) was 95% and the Cleavage (Nucleic Acid [18]) was 27%. The Cleavage (Nucleic Acid [19]) was 74%, the Cleavage (Nucleic Acid [4]) was 1% and the Cleavage (Nucleic Acid [20]) was 0%. It also gave a Cleavage (Nucleic Acid [21]) of 5%, a Cleavage (Nucleic Acid [22]) of 35% and a Cleavage (Nucleic Acid [23]) of 0%. The Cleavage (Nucleic Acid [24]) was 75%, the Cleavage (Nucleic Acid [5]) was 76% and the Cleavage (Nucleic Acid [6]) was 0%. For the same compound, the Cleavage (Nucleic Acid [25]) was 73%, the Cleavage (Nucleic Acid [7]) was 99% and the Cleavage (Nucleic Acid [8]) was 24%. It also gave a Cleavage (Nucleic Acid [26]) of 0%, a Cleavage (Nucleic Acid [9]) of 0% and a Cleavage (Nucleic Acid [27]) of 0%.
`CCOC(=O)c1cc(N)cc([N+](=O)[O-])c1` showed a Cleavage (Nucleic Acid [28]) of 0%, a Cleavage (Nucleic Acid [29]) of 90% and a Cleavage (Nucleic Acid [12]) of 10%.
`Nc1cc(C(=O)Nc2cc(NC(=O)c3ccccc3)cc(C(=O)NCCNC(=O)c3cc(NC(=O)c4ccccc4)cc(NC(=O)c4cc(N)cc([N+](=O)[O-])c4)c3)c2)cc([N+](=O)[O-])c1` gave a Cleavage (Nucleic Acid [4]) of 10%, a Cleavage (Nucleic Acid [5]) of 64% and a Cleavage (Nucleic Acid [6]) of 0%. It also gave a Cleavage (Nucleic Acid [7]) of 90%, a Cleavage (Nucleic Acid [8]) of 36% and a Cleavage (Nucleic Acid [9]) of 0%.
In the case of `Nc1cccc(C(=O)Nc2cc(NC(=O)c3ccccc3)cc(C(=O)NCNC(=O)c3cc(NC(=O)c4ccccc4)cc(NC(=O)c4cccc(N)c4)c3)c2)c1`, the Cleavage (Nucleic Acid [5]) is reported as 100%, the Cleavage (Nucleic Acid [8]) is reported as 0% and the Cleavage (Nucleic Acid [9]) is reported as 0%.
In the case of `CCOC(=O)c1cc(NC(=O)c2cc(N)cc(OC)c2)cc(NC(=O)c2cccc([N+](=O)[O-])c2)c1`, the Cleavage (Nucleic Acid [10]) is reported as 11%, the Cleavage (Nucleic Acid [11]) is reported as 0% and the Cleavage (Nucleic Acid [12]) is reported as 89%.
With `COc1cc(N)cc(C(=O)Nc2cc(NC(=O)c3ccccc3)cc(C(=O)NCCNC(=O)c3cc(NC(=O)c4ccccc4)cc(NC(=O)c4cc(N)cc(OC)c4)c3)c2)c1` the Cleavage (Nucleic Acid [30]) was 0% and 1%.
For `CCOC(=O)c1cc(NC(=O)c2cccc(N)c2)cc(NC(=O)c2cccc([N+](=O)[O-])c2)c1`, the Cleavage (Nucleic Acid [31]) was 0%, the Cleavage (Nucleic Acid [32]) was 75% and the Cleavage (Nucleic Acid [10]) was 1%. The Cleavage (Nucleic Acid [11]) was 0%, the Cleavage (Nucleic Acid [12]) was 99% and the Cleavage (Nucleic Acid [33]) was 25%.
`Nc1cccc(C(=O)Nc2cc(NC(=O)c3ccccc3)cc(C(=O)NCCCCCNC(=O)c3cc(NC(=O)c4ccccc4)cc(NC(=O)c4cccc(N)c4)c3)c2)c1` gave a Cleavage (Nucleic Acid [5]) of 65%, a Cleavage (Nucleic Acid [8]) of 35% and a Cleavage (Nucleic Acid [9]) of 0%.

Reference: ChEMBL document CHEMBL1135084, “DNA cleavage by aromatic amines” (Bioorg Med Chem Lett, 2002)
